# Measurements: patent publication US20220273562A1, “HYDROPHOBICALLY ASSOCIATING POLYMER COUNTER ION PAIR COMPLEXES” (MALVERN COSMECEUTICS LIMITED, priority 2019, published 2022)
# Where a name gives a salt, the structure may show the parent alone.
# Assays:
# [1] = Ability of polymer counter ion pair to solubilise lipid: visual clarity of polymer counter ion/PL mixtures as pH is adjusted; details: for ion pairing with SMA 1:1 leading to formation of SMA/PL macromolecular assemblies: hydrochloride salts as cationic counter ions
# [2] = Stability of the mixtures after 2-4 mths at 4° C.; assay type: physicochemical; parameters: key to Stability* After 2-4 mths + at 4° C.: S-stable; PS—partially stable; NS—not stable
# [3] = SMA 1:1 50 mg, DLPC 20 mg (2.5:1), 2 ml, amine HCl [% w/w]: isopentylamine 3 mg [0.15], isobutylamine 9 mg [0.45] (clears on standing 3 days), tyramine 5-6 mg [0.25-0.3], diphenhydramine 2.5-4 mg [0.13-0.2], phenylalanine ethyl ester 10 mg [0.5], tolazoline 5 mg [0.25], naphazoline 5 mg, start pH 7 or 8
# [4] = SMA 1:1 50 mg, DLPC 20 mg, 2 ml, amine HCl: isopentylamine 3 mg, isobutylamine 9 mg, tyramine 5-6 mg, diphenhydramine 2.5-4 mg, phenylalanine ethyl ester 10 mg, tolazoline 5 mg, naphazoline 8 mg total
# [5] = SMA 1:1 50 mg, DLPC 20 mg, 2 ml, phenylalanine ethyl ester 'Cleared,', tolazoline 'Remains clear overnight,', naphazoline 'Virtually clear'
# [6] = SMA 1:1 50 mg, DLPC 20 mg, 2 ml, naphazoline HCl further 3 mg, 8 mg [0.4% w/w] total
structure (smiles),measurement,setting,value
"c1ccc(CC2=NCCN2)cc1 [2-Benzyl-2-imidazoline (tolazoline), 2-benzyl-2-imidazoline, reference compound]",pH for clear sample,"[1]; Poly(methacrylic acid) sodium 4-6k 50 mg (preformed PMA + Bz), DLPC 10 mg (5:1), 2 ml, start pH 7-8, tolazoline HCl 22 mg [1.1% w/w], printed 'ppt & clear'","6, ppt &"
same,pH for clear sample,[1]; [3],"7-8,"
same,collapse pK of the 1:1 SMA polymer when associating with PL,[1]; imidazoline counter ion in place of a primary amine,~7
same,Stability* After 2-4 mths + at 4° C.,[2]; [4],S
same,"Stability, appearance in words",[2]; [5],clear
"Nc1ccc(C(=O)O)cc1 [4-amino benzoic acid (PABA), 4-amino benzoic acid]",ion pairing with SMA 1:1 leading to formation of SMA/PL macromolecular assemblies,[1],failed
"CN(C)CCOC(c1ccccc1)c1ccccc1 [Diphenhydramine, diphenhydramine hydrochloride, reference compound]",pH at which ppt forms,"[1]; SMA 1:1 50 mg, DLPC 20 mg, 2 ml, diphenhydramine HCl 2.5-4 mg [0.13-0.2% w/w]",ppt 6
CC(C)CN [Isobutylamine],pH for clear sample,"[1]; Poly(maleic acid) 50 mg, DLPC 2 mg (25:1), isobutyl amine HCl further 5 mg, 20 mg [1.0% w/w] total, printed 'No clearing.'",No
same,pH for clear sample,"[1]; Poly(maleic acid) 50 mg, DLPC 2 mg, isobutyl amine HCl further 5 mg, 25 mg [1.25% w/w] total, at pH 8, printed '8, No clearing.'","8, No"
same,pH for clear sample,"[1]; Poly(maleic acid) 50 mg, DLPC further 2, total 4 mg (12.5:1), isobutyl amine HCl 25 mg, complete clearing, fine white flecks","3, Complete"
same,pH at which ppt forms,"[1]; Poly(maleic acid) 50 mg, DLPC total 4 mg (12.5:1), isobutyl amine HCl 25 mg",4 ppt.
same,pH for clear sample,"[1]; Poly(maleic acid) ex PolyS 50 mg, 2 ml, start pH 8, isobutyl amine HCl 15 mg [0.75% w/w], no DLPC entered in this line",7
same,pH at which ppt forms,"[1]; Poly(methacrylic acid) sodium 4-6k 50 mg, DLPC 10 mg (5:1), 2 ml, start pH 6, isobutyl amine HCl 10 mg [0.5% w/w]","4, ppt"
same,pH for clear sample,"[1]; Poly(methacrylic acid) sodium 4-6k 50 mg, DLPC 10 mg, isobutyl amine HCl 24 mg [1.2% w/w] total","ppt, 5"
same,pH at which slight clouding occurs,"[1]; Poly(methacrylic acid) sodium 4-6k 50 mg, DLPC 10 mg, isobutyl amine HCl 36 mg [1.8% w/w] total","5, slight"
same,pH for clear sample,[1]; [3],"8, clears"
same,"Stability, appearance in words","[2]; Poly(methacrylic acid) sodium 4-6k 50 mg, DLPC 10 mg, isobutyl amine HCl 10 mg [0.5% w/w]",Clear
same,"Stability, appearance in words","[2]; Poly(methacrylic acid) sodium 4-6k 50 mg, DLPC 10 mg, isobutyl amine HCl 24 mg then 36 mg total, printed 'Clear overnight few white ppt particles'",Clear
same,Stability* After 2-4 mths + at 4° C.,[2]; [4],S
"CC(C)CCN [Isopentylamine, Isopentyl amine]",pH for clear sample,[1]; [3],"7, Clear"
same,Stability* After 2-4 mths + at 4° C.,[2]; [4],NS
"N[C@@H](Cc1ccc(O)c(O)c1)C(=O)O [L-dopa, reference compound]",ion pairing with SMA 1:1 leading to formation of SMA/PL macromolecular assemblies,[1],failed
"NC[C@H](O)c1ccc(O)c(O)c1 [L-norepinephrine, reference compound]",ion pairing with SMA 1:1 leading to formation of SMA/PL macromolecular assemblies,[1],failed
"c1ccc2c(CC3=NCCN3)cccc2c1 [Naphazoline, naphazoline hydrochloride, reference compound]",pH for clear sample,[1]; [3],"8, Clear"
same,pH at which sample is cloudy,[1]; [6],"Cloudy 7,"
same,pH for clear sample,[1]; [6],Clear 8-9.
same,ion pairing with SMA 1:1 leading to formation of SMA/PL macromolecular assemblies,[1],can also surprisingly be used as ion pairs
same,Stability* After 2-4 mths + at 4° C.,[2]; [4],PS
same,"Stability, appearance in words",[2]; [5],clear
"Cl.NCCc1ccccc1 [PEA, 2-Phenylethylamine hydrochloride]",collapse pH,[1]; 2% PEA added to a 2.5% solution of 1:1 SMA,8-9
same,pH for clear sample,"[1]; SMA 1:1 40 mg, DLPC 20 mg (2:1), final vol 1.6 ml, PEA HCl 4.4 mg [0.25% w/w]","7, Clear"
same,pH for clear sample,"[1]; SMA 1:1 40 mg, DLPC 20 mg, final vol 1.64 ml, further 2.9 mg PEA HCl, 7.3 mg [0.45% w/w] total","10, Clear"
same,pH for clear sample,"[1]; SMA 1:1 50 mg, DLPC 25 mg (2:1), final vol 2 ml, PEA HCl 40 mg [2% w/w]",8.5 clear
same,pH for clear sample,"[1]; SMA 2:1 50 mg, DLPC 25 mg (polymer:lipid 2:1), final vol 2 ml, PEA HCl 40 mg [2% w/w]",9 clear
same,pH over which the polymer collapses to interact with phospholipid,[1]; ratio SMA(1:1):PEA 5:4,8.5
same,pH over which the polymer collapses to interact with phospholipid,[1]; ratio SMA(1:1):PEA 9:1,7.0
same,Stability* After 2-4 mths + at 4° C.,"[2]; SMA 1:1 40 mg, DLPC 20 mg, 1.6 ml, PEA HCl 4.4 mg [0.25% w/w]",NS
same,Stability* After 2-4 mths + at 4° C.,"[2]; SMA 1:1 50 mg, DLPC 25 mg, 2 ml, PEA HCl 40 mg [2% w/w]",PS
"CCOC(=O)[C@@H](N)Cc1ccccc1.Cl [Phenylalanine ethyl ester, L-phenylalanine ethyl ester hydrochloride]",pH for clear sample,[1]; [3],"8, Clears"
same,Stability* After 2-4 mths + at 4° C.,[2]; [4],PS
same,"Stability, appearance in words",[2]; [5],"Cleared,"
"NCCc1ccc(O)cc1 [Tyramine, tyramine]",ion pairing with SMA 1:1 leading to formation of SMA/PL macromolecular assemblies,[1],can also surprisingly be used as ion pairs
same,Stability* After 2-4 mths + at 4° C.,[2]; [4],S
"CN(C)CCCC1c2ccccc2CCc2ccccc21 [amitryptyline hydrochloride, reference compound]",ion pairing with SMA 1:1 leading to formation of SMA/PL macromolecular assemblies,[1],only partially formed
"CCOC(=O)c1ccc(N)cc1 [benzocaine, reference compound]",ion pairing with SMA 1:1 leading to formation of SMA/PL macromolecular assemblies,[1],failed
"NCCc1ccc(O)c(O)c1 [dopamine, reference compound]",ion pairing with SMA 1:1 leading to formation of SMA/PL macromolecular assemblies,[1],failed
COc1cc(C(O)CN)ccc1O (stereo not drawn) [normetanephrine],ion pairing with SMA 1:1 leading to formation of SMA/PL macromolecular assemblies,[1],failed
NCC(O)c1ccc(O)cc1 (stereo not drawn) [octopamine],ion pairing with SMA 1:1 leading to formation of SMA/PL macromolecular assemblies,[1],failed
